Consider seven molecules from patent publication US20260042727A1, “COMPLEX OF 3-HYDROXY-3-METHYLBUTYRIC ACID AND SALT THEREOF, AND PREPARATION METHOD THEREFOR” (NANJING NUTRABUILDING BIO-TECH CO., LTD., priority 2023, published 2026).

Data set [1] is described as follows: Solubility of 3-hydroxy-3-methylbutyrate salts and complexes. The format is physicochemical. From the text:
The solubility of various 3-hydroxy-3-methylbutyrate salts and the complexes of Examples was each determined.

A short description of data set [2]: Stability (moisture content) at 23° C. and 92.5% humidity. The format is physicochemical. The note with it: temperature 23° C., humidity 92.5%. How it is done:
The stability of various 3-hydroxy-3-methylbutyrate salts and the complexes of the present disclosure was each measured at 23° C. and 92.5% humidity, and the results are shown in Table 7.

As to `CC(C)(O)CC(=O)O` [HMB-Ca complex, 3-hydroxy-3-methylbutyric acid·calcium 3-hydroxy-3-methylbutyrate complex], the Solubility in data set [1] is on record as 32 g/100. For the same molecule, the moisture content in data set [2] (30 min) is on record as 0.14%; in data set [2] (1 h), 0.29%; in data set [2] (2 h) it was 0.47%; in data set [2] (4 h), 0.87%; in data set [2] (6 h), 1.02%; in data set [2] (7 h), 1.13%. Further, the moisture content in data set [2] (11 h) is reported as 1.37%; in data set [2] (22 h) it was 2.40%.
For `CC(C)(O)CC(=O)O` [HMB-K complex, 3-hydroxy-3-methylbutyric acid·potassium 3-hydroxy-3-methylbutyrate complex], in data set [1], the Solubility is 225 g/100. The moisture content in data set [2] (30 min) was 0.29%; in data set [2] (1 h), 0.59%; in data set [2] (2 h), 0.97%; in data set [2] (4 h), 1.80%; in data set [2] (6 h), 2.11%; in data set [2] (7 h), 2.35%. For the same molecule, the moisture content in data set [2] (11 h) worked out at 2.85%; in data set [2] (22 h), 4.98%.
For `CC(C)(O)CC(=O)O` [HMB-Na complex, 3-hydroxy-3-methylbutyric acid·sodium 3-hydroxy-3-methylbutyrate complex], in data set [1], the Solubility was determined as 135 g/100. The moisture content in data set [2] (30 min) was 0.22%; in data set [2] (1 h), 0.46%; in data set [2] (2 h), 0.75%; in data set [2] (4 h) it was 1.39%; in data set [2] (6 h), 1.62%; in data set [2] (7 h), 1.81%. Also, the results for the moisture content in data set [2] (11 h) and in data set [2] (22 h) were 2.19% and 3.83%, respectively.
Turning to `CC(C)(O)CC(=O)[O-].[K+]` [potassium 3-hydroxy-3-methylbutyrate, reference compound], in data set [1], the Solubility stood at 101.1 g/100. Moreover, the moisture content in data set [2] (30 min) worked out at 0.42%; in data set [2] (1 h), 0.85%; in data set [2] (2 h), 1.39%; in data set [2] (4 h), 2.57%; in data set [2] (6 h), 3.02%; in data set [2] (7 h), 3.35%. For the same molecule, the moisture content is recorded as 4.07% in data set [2] (11 h) and 7.11% in data set [2] (22 h).
In the case of `CC(C)(O)CC(=O)[O-].[Na+]` [sodium 3-hydroxy-3-methylbutyrate, reference compound], the Solubility in data set [1] was determined as 72.9 g/100. Moreover, the moisture content in data set [2] (30 min) worked out at 0.32%; in data set [2] (1 h), 0.65%; in data set [2] (2 h) it was 1.07%; in data set [2] (4 h), 1.98%; in data set [2] (6 h), 2.32%; in data set [2] (7 h) it was 2.58%. The figures for the moisture content in data set [2] (11 h) and in data set [2] (22 h) were 3.13% and 5.47%, respectively.
Take “calcium 3-hydroxy-3-methylbutyrate [reference compound]”: the moisture content in data set [2] (30 min) is recorded as 0.19%; in data set [2] (1 h), 0.38%; in data set [2] (2 h), 0.63%; in data set [2] (4 h) it was 1.16%; in data set [2] (6 h) it was 1.36%; in data set [2] (7 h), 1.51%. The moisture content was 1.83% in data set [2] (11 h) and 3.20% in data set [2] (22 h).
“magnesium 3-hydroxy-3-methylbutyrate [reference compound]”: in data set [1], the Solubility stood at 6 g/100. In addition, the moisture content in data set [2] (30 min) is 0.11%; in data set [2] (1 h), 0.23%; in data set [2] (2 h), 0.38%; in data set [2] (4 h), 0.70%; in data set [2] (6 h), 0.81%; in data set [2] (7 h), 0.91%. Also, the values for the moisture content in data set [2] (11 h) and in data set [2] (22 h) were 1.10% and 1.92%, respectively.
